In brackets after ≈: the same amount, converted by molar mass.
Columns and labels:
Assay in all cases: ≥ marks a high value that may be exact or a test limit, other limits are often not marked, values filed in µg/mL are converted to µM
[1] = system: Aeromonas hydrophila
[2] = system: Aeromonas salmonicida NCTC 7812
[3] = system: Aeromonas salmonicida
[4] = system: Enterococcus faecalis ATCC 29212
[5] = system: Enterococcus faecalis
[6] = system: Escherichia coli ATCC 25922
[7] = system: Escherichia coli
[8] = system: Klebsiella pneumoniae
[9] = system: Lactococcus garvieae 00-1422
[10] = system: Lactococcus garvieae
[11] = system: Pseudomonas aeruginosa
[12] = system: Shigella flexneri ATCC 12022
[13] = system: Shigella flexneri
[14] = system: Staphylococcus aureus
[15] = system: Streptococcus iniae 00-1425
[16] = system: Streptococcus iniae
[17] = system: Vibrio alginolyticus
[18] = system: Vibrio anguillarum ATCC 19264
[19] = system: Enterobacter cloacae BCRC 10401
[20] = system: Escherichia coli BCRC 10675
[21] = system: Klebsiella aerogenes BCRC 10370
[22] = system: Klebsiella oxytoca BCRC 13985
[23] = system: Listeria monocytogenes BCRC 14845
[24] = system: Pseudomonas aeruginosa BCRC 10944
[25] = system: Staphylococcus aureus BCRC 10780
[26] = system: Staphylococcus aureus BCRC 10781
[27] = system: Staphylococcus xylosus BCRC 12930
[28] = system: Streptococcus equinus BCRC 14729
[29] = system: Vibrio alginolyticus BCRC 12829
[30] = system: Vibrio anguillarum serotype O1
[31] = system: Vibrio harveyi
[32] = system: Vibrio parahaemolyticus BCRC 10806
[33] = system: Vibrio parahaemolyticus
[34] = system: Yersinia enterocolitica BCRC 13999
[35] = system: Candida albicans NBRC 1385
[36] = system: Escherichia coli K-12 594
[37] = system: Escherichia coli SPE 001
[38] = system: Escherichia coli W3110
[39] = system: Staphylococcus aureus ATCC 6538P
[40] = system: Staphylococcus aureus NBRC 100910
[41] = system: Staphylococcus aureus SPM 101
[42] = system: Staphylococcus aureus SR1550
[43] = system: Pseudomonas aeruginosa PAK
[44] = system: Streptococcus gordonii Challis DL1
[45] = system: Streptococcus mitis ATCC 903
[46] = system: Streptococcus mutans UA159
[47] = system: Streptococcus sanguinis NY101

In the case of `CC[C@H](C)[C@H](NC(=O)CNC(=O)[C@H](CCCN=C(N)N)NC(=O)[C@H](Cc1ccccc1)NC(=O)[C@@H](NC(=O)[C@H](Cc1cnc[nH]1)NC(=O)[C@H](Cc1cnc[nH]1)NC(=O)[C@@H](NC(=O)[C@@H](N)Cc1ccccc1)[C@@H](C)CC)[C@@H](C)CC)C(=O)N[C@H](C(=O)N[C@@H](Cc1cnc[nH]1)C(=O)N[C@@H](C)C(=O)NCC(=O)N[C@@H](CCCN=C(N)N)C(=O)N[C@@H](CO)C(=O)N[C@H](C(=O)NCC(=O)N[C@@H](CCCN=C(N)N)C(=O)N[C@@H](Cc1ccccc1)C(=O)N[C@@H](CC(C)C)C(=O)N[C@H](C(=O)NCC(=O)O)[C@@H](C)O)[C@@H](C)CC)C(C)C` [FIHHIFRGIVHAGRSIGRFLTG], the MIC [1] was 0.642 µM (≈ 1.6 µg/mL), the MIC [2] was at least 80.3 µM and the MIC [3] was 5.02 µM (≈ 12.5 µg/mL). For the same compound, the MIC [4] was 1.26 µM (≈ 3.14 µg/mL), the MIC [5] was 5.02 µM (≈ 12.5 µg/mL) and the MIC [6] was 80.3 µM (≈ 200 µg/mL). It also gave an MIC [7] of 1.24 µM (≈ 3.1 µg/mL), an MIC [8] of 2.53 µM (≈ 6.3 µg/mL) and an MIC [9] of 20.1 µM (≈ 50 µg/mL). The MIC [10] was 1.77 µM (≈ 4.42 µg/mL), the MIC [11] was 10 µM (≈ 25 µg/mL) and the MIC [12] was 20.1 µM (≈ 50 µg/mL). The MIC [13] was 2.53 µM (≈ 6.3 µg/mL), the MIC [14] was 1.24 µM (≈ 3.1 µg/mL) and the MIC [15] was 2.51 µM (≈ 6.25 µg/mL). The MIC [16] was 1.24 µM (≈ 3.1 µg/mL), the MIC [17] was 2.53 µM (≈ 6.3 µg/mL) and the MIC [18] was 3.55 µM (≈ 8.85 µg/mL).

In the case of `CC[C@H](C)[C@H](NC(=O)[C@@H](NC(=O)[C@H](CCCCN)NC(=O)[C@H](Cc1ccc(O)cc1)NC(=O)[C@H](Cc1ccccc1)NC(=O)[C@H](CCCCN)NC(=O)[C@@H](NC(=O)[C@H](Cc1ccccc1)NC(=O)[C@H](C)NC(=O)[C@@H](NC(=O)[C@H](C)NC(=O)[C@H](C)NC(=O)[C@H](CCCCN)NC(=O)[C@@H](NC(=O)[C@H](CC(C)C)NC(=O)[C@H](C)NC(=O)[C@H](CCCCN)NC(=O)[C@H](C)NC(=O)CN)[C@@H](C)O)[C@@H](C)O)[C@@H](C)O)[C@@H](C)O)C(=O)N[C@@H](Cc1c[nH]c2ccccc12)C(=O)O` [GAKALTKAATAFTKFYKTIW], the MIC [19] was 7.21 µM (≈ 16 µg/mL), the MIC [20] was 7.21 µM (≈ 16 µg/mL) and the MIC [21] was 7.21 µM (≈ 16 µg/mL). The MIC [22] was 7.21 µM (≈ 16 µg/mL), the MIC [10] was at least 57.7 µM and the MIC [23] was 28.9 µM (≈ 64 µg/mL). It also gave an MIC [24] of 28.9 µM (≈ 64 µg/mL), an MIC [25] of at least 57.7 µM and an MIC [26] of at least 57.7 µM. For the same compound, the MIC [27] was 28.9 µM (≈ 64 µg/mL), the MIC [28] was at least 57.7 µM and the MIC [16] was at least 57.7 µM. For the same compound, the MIC [29] was at least 57.7 µM, the MIC [17] was 14.4 µM (≈ 32 µg/mL) and the MIC [30] was 28.9 µM (≈ 64 µg/mL). For the same compound, the MIC [31] was 28.9 µM (≈ 64 µg/mL), the MIC [32] was at least 57.7 µM and the MIC [33] was 14.4 µM (≈ 32 µg/mL). For the same compound, the MIC [34] was at least 57.7 µM.

For `CC(C)C[C@H](NC(=O)[C@H](CCCCN)NC(=O)[C@H](CC(C)C)NC(=O)[C@H](CC(C)C)NC(=O)[C@H](CC(C)C)NC(=O)[C@H](CC(C)C)NC(=O)[C@H](CC(C)C)NC(=O)[C@H](CCCCN)NC(=O)[C@H](CC(C)C)NC(=O)[C@@H](N)CCCCN)C(=O)N[C@@H](CCCCN)C(N)=O` [KLKLLLLLKLK], the MIC [35] was at least 48.4 µM, the MIC [36] was 15.1 µM (≈ 20 µg/mL) and the MIC [37] was 12.1 µM (≈ 16 µg/mL). It also gave an MIC [38] of 12.1 µM (≈ 16 µg/mL), an MIC [39] of 1.51 µM (≈ 2 µg/mL) and an MIC [40] of 12.1 µM (≈ 16 µg/mL). It also gave an MIC [41] of 0.378 µM (≈ 0.5 µg/mL) and an MIC [42] of 22.7 µM (≈ 30 µg/mL).

Compound `CC[C@H](C)[C@H](NC(=O)[C@H](Cc1ccccc1)NC(=O)CNC(=O)CNC(=O)[C@H](CO)NC(=O)[C@H](Cc1ccccc1)NC(=O)[C@H](Cc1c[nH]c2ccccc12)NC(=O)[C@H](CCCN=C(N)N)NC(=O)[C@H](Cc1c[nH]c2ccccc12)NC(=O)[C@H](CCCN=C(N)N)NC(=O)[C@H](Cc1c[nH]c2ccccc12)NC(=O)[C@@H](N)CCCN=C(N)N)C(=O)N[C@@H](CCCCN)C(=O)N[C@@H](Cc1cnc[nH]1)C(=O)N[C@@H](Cc1ccccc1)C(=O)N[C@H](C(=O)N[C@@H](Cc1cnc[nH]1)C(=O)N[C@@H](CCCN=C(N)N)C(=O)N[C@@H](Cc1ccccc1)C(N)=O)[C@@H](C)CC` [RWRWRWFSGGFIKHFIHRF] has an MIC [43] of 23.9 µM (≈ 62.5 µg/mL), an MIC [14] of 12.2 µM (≈ 32 µg/mL) and an MIC [44] of 12.2 µM (≈ 32 µg/mL). The MIC [45] was 12.2 µM (≈ 32 µg/mL), the MIC [46] was 3.05 µM (≈ 8 µg/mL) and the MIC [47] was 12.2 µM (≈ 32 µg/mL).

Reference: DBAASP
